# Measurements: patent US10414763B2 (CANCER RESEARCH TECHNOLOGY LIMITED, priority 2014, dated 2019)
# Biological target: T1, full-length human PKCι (Homo sapiens, UniProt P41743)
# T1 construct: Recombinant, full-length human PKCι expressed in Sf21 insect cells is also commercially available; purchased EMD Millipore; host or cells: Sf21 insect cells (baculovirus)
# T1 sequence (P41743 1-596): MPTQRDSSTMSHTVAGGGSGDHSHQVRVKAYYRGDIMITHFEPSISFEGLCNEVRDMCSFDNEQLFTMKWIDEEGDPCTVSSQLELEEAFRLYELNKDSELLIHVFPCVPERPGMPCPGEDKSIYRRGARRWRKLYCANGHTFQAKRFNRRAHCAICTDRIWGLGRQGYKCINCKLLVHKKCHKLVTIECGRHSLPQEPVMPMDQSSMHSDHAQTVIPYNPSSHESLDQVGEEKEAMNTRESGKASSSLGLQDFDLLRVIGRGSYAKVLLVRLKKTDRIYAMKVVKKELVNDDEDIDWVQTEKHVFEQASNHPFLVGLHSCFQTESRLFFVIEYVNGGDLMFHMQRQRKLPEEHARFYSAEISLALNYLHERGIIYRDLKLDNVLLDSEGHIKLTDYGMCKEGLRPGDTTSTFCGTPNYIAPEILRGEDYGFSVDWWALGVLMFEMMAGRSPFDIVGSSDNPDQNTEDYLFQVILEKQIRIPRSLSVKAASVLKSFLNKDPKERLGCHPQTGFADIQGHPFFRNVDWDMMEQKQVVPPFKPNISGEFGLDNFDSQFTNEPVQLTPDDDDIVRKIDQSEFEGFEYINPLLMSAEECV
# Experiment: PKCι IC50 IMAP fluorescence polarisation assay, full-length enzyme, 150 μM ATP
# Format: biochemical
# Settings: read-out: IC50 in IMAP assay against full length PKCi at 150 μM ATP
# Outline: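 IMAP fluorescence polarisation kinase assay: 15 pM baculovirus-expressed human PKCiota with 100 nM FAM-pseudosubstrate peptide and 150 μM ATP, 1 h at 25 °C. IMAP detection reagent then 2 h at 25 °C before FP measurement. Inhibition referenced to no-compound and no-enzyme controls for IC50 fitting.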
row,IC50,SMILES
1,< 100 nM,"Clc1ccc(-c2cc3c(-c4nc(N5CCNCC5)c5c(C6CC6)cncc5n4)ccnc3[nH]2)cc1 [Example 139, 2-[2-(4-Chloro-phenyl)-1H-pyrrolo[2,3-b]pyridin-4-yl]-5-cyclopropyl-4-piperazin-1-yl-pyrido[3,4-d]pyrimidine]"
2,< 100 nM,"Clc1ccc(-c2cc3c(-c4nc(N5CCC6NCCC65)c5c(C6CC6)cncc5n4)ccnc3[nH]2)cc1 (stereo not shown) [Example 140, 2-[2-(4-Chloro-phenyl)-1H-pyrrolo[2,3-b]pyridin-4-yl]-5-cyclopropyl-4-(hexahydro-pyrrolo[3,2-b]pyrrol-1-yl)-pyrido[3,4-d]pyrimidine]"
3,< 100 nM,"c1ccc2c(c1)[nH]c1nccc(-c3nc(N[C@@H]4CCCNCC4)c4c(C5CCC5)cncc4n3)c12 [Example 141, (R)-Azepan-4-yl-[5-cyclobutyl-2-(9H-pyrido[2,3-b]indol-4-yl)-pyrido[3,4-d]pyrimidin-4-yl]-amine]"
4,< 100 nM,"Clc1ccc(Cl)c(-c2cc3c(-c4nc(N5CCC6NCCCC65)c5c(C6CC6)cncc5n4)ccnc3[nH]2)c1 (stereo not shown) [Example 142, 5-Cyclopropyl-2-[2-(2,5-dichloro-phenyl)-1H-pyrrolo[2,3-b]pyridin-4-yl]-4-(octahydro-pyrrolo [3,2-b]pyridin-1-yl)-pyrido[3,4-d]pyrimidine]"
5,1000 to 10000 nM,"c1ccn2nc(Nc3cc(-c4nc(N5CCC6CNCCC65)c5c(C6CC6)cncc5n4)ccn3)nc2c1 (stereo not shown) [Example 152, {4-[5-Cyclopropyl-4-(octahydro-pyrrolo[3,2-c]pyridin-1-yl)-pyrido [3,4-d]pyrimidin-2-yl]-pyridin-2-yl}-[1,2,4]triazolo[1,5-a] pyridin-2-yl-amine]"
6,100 to 1000 nM,"Cc1cc2c(-c3nc(N[C@H]4CCNCC4(C)C)c4c(C5CC5)cncc4n3)ccnc2[nH]1 [Example 153, [5-Cyclopropyl-2-(2-methyl-1H-pyrrolo[2,3-b]pyridin-4-yl)-pyrido[3,4-d]pyrimidin-4-yl]-((S)-3,3-dimethyl-piperidin-4-yl)-amine]"
7,< 100 nM,"Cc1cc2c(-c3nc(N[C@@H]4CCNCC4(C)C)c4c(C5CC5)cncc4n3)ccnc2[nH]1 [Example 154, [5-Cyclopropyl-2-(2-methyl-1H-pyrrolo[2,3-b]pyridin-4-yl)-pyrido[3,4-d]pyrimidin-4-yl]-((R)-3,3-dimethyl-piperidin-4-yl)-amine]"
8,< 100 nM,"FC(F)(F)c1cc2c(-c3nc(N4CCOC5CNCC54)c4c(C5CC5)cncc4n3)ccnc2[nH]1 (stereo not shown) [Example 155, 5-Cyclopropyl-4-(hexahydro-pyrrolo[3,4-b] [1,4]oxazin-4-yl)-2-(2-trifluoromethyl-1H-pyrrolo[2,3-b]pyridin-4-yl)-pyrido[3,4-d]pyrimidine]"
9,< 100 nM,"CC1(C)CNCCC1Nc1nc(-c2ccnc3[nH]c(-c4ccc(C(N)=O)cc4)cc23)nc2cncc(C3CC3)c12 (stereo not shown) [Example 156, 4-{4-[5-Cyclopropyl-4-(3,3-dimethyl-piperidin-4-ylamino)-pyrido[3,4-d]pyrimidin-2-yl]-1H-pyrrolo[2,3-b]pyridin-2-yl}-benzamide]"
10,100 to 1000 nM,"CC1(C)CNCC[C@H]1Nc1nc(-c2ccnc(Nc3nc(F)ccc3F)c2)nc2cncc(C3CC3)c12 [Example 157, {5-Cyclopropyl-2-[2-(3,6-difluoro-pyridin-2-ylamino)-pyridin-4-yl]-pyrido[3,4-d]pyrimidin-4-yl}-((R)-3,3-dimethyl-piperidin-4-yl)-amine]"
11,< 100 nM,"CC1(C)CNCC[C@@H]1Nc1nc(-c2ccnc(Nc3nc(F)ccc3F)c2)nc2cncc(C3CC3)c12 [Example 158, {5-Cyclopropyl-2-[2-(3,6-difluoro-pyridin-2-ylamino)-pyridin-4-yl]-pyrido[3,4-d]pyrimidin-4-yl}-((S)-3,3-dimethyl-piperidin-4-yl)-amine]"
12,< 100 nM,"Fc1cc(F)c(Nc2cc(-c3nc(NC4CCCNCC4)c4c(C5CCC5)cncc4n3)ccn2)nc1F (stereo not shown) [Example 159, Azepan-4-yl-{5-cyclobutyl-2-[2-(3,5,6-trifluoro-pyridin-2-ylamino)-pyridin-4-yl]-pyrido[3,4-d]pyrimidin-4-yl}-amine]"
13,< 100 nM,"Fc1ccc(F)c(Nc2cc(-c3nc(NC4CCCNCC4)c4c(C5CCC5)cncc4n3)ccn2)n1 (stereo not shown) [Example 160, Azepan-4-yl-{5-cyclobutyl-2-[2-(3,6-difluoro-pyridin-2-ylamino)-pyridin-4-yl]-pyrido[3,4-d]pyrimidin-4-yl}-amine]"
14,100 to 1000 nM,CC1(C)CNCC[C@@H]1Nc1nc(-c2ccnc3[nH]c4ccccc4c23)nc2cncc(C3CCC3)c12 [Example 200]
15,< 100 nM,"Fc1cccc(Nc2cc(-c3nc(N4CCOC5CNCC54)c4c(C5CC5)cncc4n3)ccn2)n1 (stereo not shown) [Example 201, {4-[5-Cyclopropyl-4-(hexahydro-pyrrolo[3,4-b][1,4]oxazin-4-yl)-pyrido[3,4-d]pyrimidin-2-yl]-pyridin-2-yl}-(6-fluoro-pyridin-2-yl)-amine]"
16,< 100 nM,"Fc1cc(F)c(Nc2cc(-c3nc(N4CCOC5CNCC54)c4c(C5CC5)cncc4n3)ccn2)nc1F (stereo not shown) [Example 202, {4-[5-Cyclopropyl-4-(hexahydro-pyrrolo[3,4-b][1,4]oxazin-4-yl)-pyrido[3,4-d]pyrimidin-2-yl]-pyridin-2-yl}-(3,5,6-trifluoro-pyridin-2-yl)-amine]"
17,100 to 1000 nM,"Fc1ccc(F)c(Nc2cc(-c3nc(N4CCOC5CNCC54)c4c(C5CC5)cncc4n3)ccn2)n1 (stereo not shown) [Example 203, {4-[5-Cyclopropyl-4-(hexahydro-pyrrolo[3,4-b][1,4]oxazin-4-yl)-pyrido[3,4-d]pyrimidin-2-yl]-pyridin-2-yl}-(3,6-difluoro-pyridin-2-yl)-amine]"
18,< 100 nM,"CC(C)c1cc(C(C)C)c(S(=O)(=O)Oc2nc(-c3ccnc4[nH]c5ccccc5c34)nc3cncc(C4CCC4)c23)c(C(C)C)c1 [Example 204, 2,4,6-Triisopropyl-benzenesulfonic acid 5-cyclobutyl-2-(9H-pyrido[2,3-b]indol-4-yl)-pyrido[3,4-d]pyrimidin-4-yl ester]"
19,< 100 nM,"c1cc(-c2nc(N3CCNCC3)c3c(C4CC4)cncc3n2)cc(Nc2nc3n(n2)CCCC3)n1 [Example 205, [4-(5-Cyclopropyl-4-piperazin-1-yl-pyrido[3,4-d]pyrimidin-2-yl)-pyridin-2-yl]-(5,6,7,8-tetrahydro-[1,2,4]triazolo[1,5-a]pyridin-2-yl)-amine]"
20,< 100 nM,"c1ccc2c(c1)[nH]c1nccc(-c3nc(N4CCOC5CNCC54)c4c(C5CCC5)cncc4n3)c12 (stereo not shown) [Example 206, 4-[5-Cyclobutyl-4-(hexahydro-pyrrolo[3,4-b][1,4]oxazin-4-yl)-pyrido[3,4-d]pyrimidin-2-yl]-9H-pyrido[2,3-b]indole]"
21,< 100 nM,"Fc1cc(F)c(Nc2cc(-c3nc(NC45CCNCC4C5)c4c(C5CCC5)cncc4n3)ccn2)nc1F (stereo not shown) [Example 208, (3-Aza-bicyclo[4.1.0]hept-6-yl)-{5-cyclobutyl-2-[2-(3,5,6-trifluoro-pyridin-2-ylamino)-pyridin-4-yl]-pyrido[3,4-d]pyrimidin-4-yl}-amine]"
22,< 100 nM,"Fc1ccc(F)c(Nc2cc(-c3nc(NC45CCNCC4C5)c4c(C5CCC5)cncc4n3)ccn2)n1 (stereo not shown) [Example 209, (3-Aza-bicyclo[4.1.0]hept-6-yl)-{5-cyclobutyl-2-[2-(3,6-difluoro-pyridin-2-ylamino)-pyridin-4-yl]-pyrido[3,4-d]pyrimidin-4-yl}-amine]"
